Reference: patent US11034672B1, “Tyrosine kinase inhibitor compositions, methods of making and methods of use” (Black Diamond Therapeutics, Inc., priority 2018, dated 2021)
Values belong to the molecule of their own block, whether it stands above or below them.

Tests used:
[1] = tested on: covalently-activated EGFR variants; assay: Covalent dimer formation, Western blot under non-reducing conditions; type: cell-based
[2] = tested on: GBM; details: in combination with radiation and temozolomide; cited from earlier work
[3] = tested on: cells having the EGFR-Vii mutation; assay: Proliferation of cells having the EGFR-Vii mutation (FIG. 18); type: cell-based
Description: (§1) EC50 values were determined with the same application.

[4] = tested on: cells expressing ErbB ectodomain variants
[5] = biological target: T1, HER2 YVMA (Homo sapiens, UniProt P04626, INS775YVMA); assay: BaF3 cell proliferation assay, HER2 YVMA (Table B); type: cell-based; details: potency code, 3 days, CellTiterGlo, read-out: HER2 YVMA (Activity for Inhibiting HER2)
T1 construct: expressed in transfected cells; host or cells: BaF3 (murine pro-B)
T1 sequence (P04626 with tags, fused parts or gaps INS775YVMA): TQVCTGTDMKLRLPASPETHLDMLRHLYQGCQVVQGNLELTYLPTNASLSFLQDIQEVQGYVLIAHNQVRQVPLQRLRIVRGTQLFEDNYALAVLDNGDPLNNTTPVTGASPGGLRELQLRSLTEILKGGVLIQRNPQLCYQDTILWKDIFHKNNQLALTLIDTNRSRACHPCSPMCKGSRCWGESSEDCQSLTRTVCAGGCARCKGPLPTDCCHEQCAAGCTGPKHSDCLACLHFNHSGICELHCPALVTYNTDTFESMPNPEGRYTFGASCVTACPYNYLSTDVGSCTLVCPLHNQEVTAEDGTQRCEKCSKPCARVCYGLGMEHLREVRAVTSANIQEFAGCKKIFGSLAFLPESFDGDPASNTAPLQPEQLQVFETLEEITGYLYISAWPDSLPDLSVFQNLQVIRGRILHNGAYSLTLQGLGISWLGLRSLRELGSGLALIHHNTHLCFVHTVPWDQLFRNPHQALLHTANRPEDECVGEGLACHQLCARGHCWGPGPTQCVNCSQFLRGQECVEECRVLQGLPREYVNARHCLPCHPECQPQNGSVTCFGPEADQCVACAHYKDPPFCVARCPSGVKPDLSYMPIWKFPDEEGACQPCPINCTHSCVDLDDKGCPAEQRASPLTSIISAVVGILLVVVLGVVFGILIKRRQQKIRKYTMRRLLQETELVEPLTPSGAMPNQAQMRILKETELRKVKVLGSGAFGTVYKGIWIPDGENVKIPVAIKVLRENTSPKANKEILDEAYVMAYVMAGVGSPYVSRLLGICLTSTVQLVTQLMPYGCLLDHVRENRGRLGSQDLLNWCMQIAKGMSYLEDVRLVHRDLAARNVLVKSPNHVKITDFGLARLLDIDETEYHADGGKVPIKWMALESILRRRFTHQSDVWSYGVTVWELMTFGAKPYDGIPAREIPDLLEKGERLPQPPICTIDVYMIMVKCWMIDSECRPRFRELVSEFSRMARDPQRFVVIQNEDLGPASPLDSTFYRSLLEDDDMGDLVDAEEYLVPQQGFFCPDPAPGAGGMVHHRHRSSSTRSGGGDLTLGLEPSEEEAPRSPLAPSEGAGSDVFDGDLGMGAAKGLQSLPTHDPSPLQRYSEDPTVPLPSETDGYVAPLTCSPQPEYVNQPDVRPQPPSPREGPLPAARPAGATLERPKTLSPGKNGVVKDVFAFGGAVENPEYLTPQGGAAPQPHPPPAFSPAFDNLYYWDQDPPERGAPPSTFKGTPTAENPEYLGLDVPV

[6] = biological target: T2, HER2 S310F (Homo sapiens, UniProt P04626, S310F); assay: BaF3 cell proliferation assay, HER2 S310F (Table B); type: cell-based; details: potency code, 3 days, CellTiterGlo, read-out: HER2 S310F (Activity for Inhibiting HER2)
T2 construct: expressed in transfected cells; host or cells: BaF3 (murine pro-B)
T2 sequence (P04626 23-1255 S310F): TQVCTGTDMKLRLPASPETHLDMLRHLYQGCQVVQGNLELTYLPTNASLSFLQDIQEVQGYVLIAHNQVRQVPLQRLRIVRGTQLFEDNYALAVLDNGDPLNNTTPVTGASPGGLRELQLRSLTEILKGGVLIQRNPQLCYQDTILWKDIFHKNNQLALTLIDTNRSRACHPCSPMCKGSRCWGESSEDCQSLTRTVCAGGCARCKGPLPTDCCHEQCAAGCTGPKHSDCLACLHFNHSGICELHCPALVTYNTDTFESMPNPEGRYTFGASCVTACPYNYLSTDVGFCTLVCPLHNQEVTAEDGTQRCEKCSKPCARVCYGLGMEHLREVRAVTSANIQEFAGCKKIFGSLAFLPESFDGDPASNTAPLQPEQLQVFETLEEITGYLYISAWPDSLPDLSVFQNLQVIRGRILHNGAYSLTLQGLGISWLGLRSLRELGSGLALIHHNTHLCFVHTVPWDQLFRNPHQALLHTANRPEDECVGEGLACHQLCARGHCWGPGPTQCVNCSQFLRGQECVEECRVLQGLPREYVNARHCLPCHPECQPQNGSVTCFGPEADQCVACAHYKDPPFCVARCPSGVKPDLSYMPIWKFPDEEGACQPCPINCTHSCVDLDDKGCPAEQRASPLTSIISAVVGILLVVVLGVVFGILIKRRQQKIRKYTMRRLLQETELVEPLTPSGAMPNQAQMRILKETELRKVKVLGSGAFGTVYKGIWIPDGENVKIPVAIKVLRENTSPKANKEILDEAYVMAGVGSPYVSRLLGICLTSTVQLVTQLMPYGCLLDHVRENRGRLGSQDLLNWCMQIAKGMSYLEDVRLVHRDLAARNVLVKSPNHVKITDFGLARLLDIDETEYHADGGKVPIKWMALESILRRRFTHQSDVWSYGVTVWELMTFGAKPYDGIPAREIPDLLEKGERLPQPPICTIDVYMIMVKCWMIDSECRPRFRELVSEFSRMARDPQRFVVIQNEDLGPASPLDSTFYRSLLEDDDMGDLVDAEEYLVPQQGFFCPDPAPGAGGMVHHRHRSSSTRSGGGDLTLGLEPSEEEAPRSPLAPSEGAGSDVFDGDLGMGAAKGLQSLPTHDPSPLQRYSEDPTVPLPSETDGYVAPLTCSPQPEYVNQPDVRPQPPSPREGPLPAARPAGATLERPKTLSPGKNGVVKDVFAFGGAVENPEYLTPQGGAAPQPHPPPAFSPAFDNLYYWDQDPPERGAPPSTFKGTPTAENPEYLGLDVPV

[7] = biological target: T3, HER2 WT (Homo sapiens, UniProt P04626); assay: Activity for inhibiting HER2 (Table B), HER2 WT; type: cell-based
T3 sequence (P04626 23-1255): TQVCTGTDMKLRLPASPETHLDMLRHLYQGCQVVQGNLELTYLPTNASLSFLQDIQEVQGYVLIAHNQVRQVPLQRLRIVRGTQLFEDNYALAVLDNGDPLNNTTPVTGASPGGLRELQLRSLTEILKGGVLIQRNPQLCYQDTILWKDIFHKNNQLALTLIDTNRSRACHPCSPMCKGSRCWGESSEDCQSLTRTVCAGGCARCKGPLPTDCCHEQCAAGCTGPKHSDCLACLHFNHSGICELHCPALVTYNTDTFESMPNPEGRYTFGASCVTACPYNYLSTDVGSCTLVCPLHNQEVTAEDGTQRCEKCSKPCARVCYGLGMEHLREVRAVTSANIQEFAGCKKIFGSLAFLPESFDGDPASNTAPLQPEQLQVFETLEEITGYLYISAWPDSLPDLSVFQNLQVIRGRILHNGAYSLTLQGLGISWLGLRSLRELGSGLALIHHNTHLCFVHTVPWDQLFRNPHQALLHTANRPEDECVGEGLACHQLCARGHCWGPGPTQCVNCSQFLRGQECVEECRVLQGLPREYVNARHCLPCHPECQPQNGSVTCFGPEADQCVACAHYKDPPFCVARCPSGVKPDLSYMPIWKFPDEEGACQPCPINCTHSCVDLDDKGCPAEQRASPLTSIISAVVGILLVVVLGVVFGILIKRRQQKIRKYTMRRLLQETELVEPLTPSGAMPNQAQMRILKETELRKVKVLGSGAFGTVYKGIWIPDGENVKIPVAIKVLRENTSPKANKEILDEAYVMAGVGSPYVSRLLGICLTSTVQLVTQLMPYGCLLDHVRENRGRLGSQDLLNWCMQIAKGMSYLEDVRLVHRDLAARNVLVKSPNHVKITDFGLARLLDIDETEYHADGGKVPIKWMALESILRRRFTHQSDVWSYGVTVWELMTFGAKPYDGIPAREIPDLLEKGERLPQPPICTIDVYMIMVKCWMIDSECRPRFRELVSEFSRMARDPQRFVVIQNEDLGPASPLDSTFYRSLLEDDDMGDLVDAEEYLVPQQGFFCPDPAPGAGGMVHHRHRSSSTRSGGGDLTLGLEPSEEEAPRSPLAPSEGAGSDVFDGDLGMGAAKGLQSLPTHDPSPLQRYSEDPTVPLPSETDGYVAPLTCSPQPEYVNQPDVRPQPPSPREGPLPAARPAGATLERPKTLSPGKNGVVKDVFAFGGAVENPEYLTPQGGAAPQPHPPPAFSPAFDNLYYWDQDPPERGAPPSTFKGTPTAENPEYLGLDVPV

[8] = biological target: T1, HER2 YVMA; assay: Activity for inhibiting HER2 (Table B), HER2 YVMA; type: cell-based; details: read-out: HER2 YVMA, potency code (IC50)
Description: as §1

[9] = tested on: HER2 S310F; assay: Tumor pHER2/pERK AlphaLisa in mice bearing HER2 S310F BaF3 tumors (Examples 15-18); type: in vivo; details: two day acute oral dosing, 15 mg/kg; at peak plasma levels
Description: (§2) Following the second dose, tumors were collected at 2 hours, 5 hours, 12 hours and 24 hours, and analyzed for both pHER2 activity and pERK activity via AlphaLisa. Plasma was also collected at these time points and analayzed for the presence of Compound No. 21 to determine pharmacokinetic profile. The tumor tissue was cut and homogenized using the Precellys Soft Tissue Homogenizing kit (KT03961-1-00.3.2) containing T-PER tissue protein extraction reagent (Thermo Scientific #78510), supplemented with Protease Inhibitor (Sigma P8340), and Phosphatase Inhibitors II and III (Sigma P5726 and P0044). Tissue samples were homogenized in the Precellys machine by spinning two times for one minute each. Sample tubes were centrifuged for 5 min at 15,000 rpm at 4° C. The supernatant was transferred to a fresh microtube and spun again for 5 minutes at 15,000 rpm at 4° C. Supernatant was then transferred to a fresh microtube and placed on ice. The protein concentration of the supernatant was measured using the BCA reagent Kit (Thermo Scientific #23225). Tumor tissue-derived lysates were analyzed for either HER2 activity or EGFR activity by detection of pHER2 (Tyr1221/1222) or pERK (Thr202/Tyr204) phosphosites, respectively, via AlphaLisa. Briefly, tumor Lysates were diluted to 0.5 ug/ul in 1× diluted SureFire Ultra Kit Lysis Buffer (5× supplied stock) supplemented with Protease Inhibitor (Sigma P8340) and Phosphatase Inhibitor II and III (Sigma P5726 and P0044). 10 ul of total tumor lysate was added per well in triplicate to a 384-well Opti-plate (Perkin Elmer #6007290). Activation Buffer was diluted 25-fold in combined Reaction Buffer 1 and Reaction Buffer 2, and acceptor beads were diluted 50-fold in the combined Reaction Buffers. 5 ul/well of the Acceptor bead:Reaction buffer mixture was added to each well.
as §2, with “No. 5” for “No. 21”, “Buffer (X” for “Buffer (5×”
To determine the ability of Compound No. 118 to inhibit tumor growth and induce tumor regression in vivo, a mouse tumor model containing the HER2 S310F mutation was used. Athymic nude mice from Charles River Labs bearing HER2 S310F BaF3 tumors were treated with two day acute oral dosing of Compound No. 118 at 15 mg/kg. […]

[10] = biological target: T3, HER2 WT; assay: BaF3 cell proliferation assay, HER2 WT (Table B); type: cell-based; details: potency code, 3 days, CellTiterGlo, read-out: HER2 WT (Activity for Inhibiting HER2)
[11] = biological target: T2, HER2 S310F; assay: Activity for inhibiting HER2 (Table B), HER2 S310F; type: cell-based; details: read-out: HER2 S310F, potency code (IC50)
Description: as §1

[12] = biological target: T4, EGFR WT (Homo sapiens, UniProt P00533); assay: Activity for inhibiting EGFR (Table A), EGFR WT; type: cell-based; details: read-out: EGFR WT, potency code (IC50)
T4 sequence (P00533 25-1210 N540K): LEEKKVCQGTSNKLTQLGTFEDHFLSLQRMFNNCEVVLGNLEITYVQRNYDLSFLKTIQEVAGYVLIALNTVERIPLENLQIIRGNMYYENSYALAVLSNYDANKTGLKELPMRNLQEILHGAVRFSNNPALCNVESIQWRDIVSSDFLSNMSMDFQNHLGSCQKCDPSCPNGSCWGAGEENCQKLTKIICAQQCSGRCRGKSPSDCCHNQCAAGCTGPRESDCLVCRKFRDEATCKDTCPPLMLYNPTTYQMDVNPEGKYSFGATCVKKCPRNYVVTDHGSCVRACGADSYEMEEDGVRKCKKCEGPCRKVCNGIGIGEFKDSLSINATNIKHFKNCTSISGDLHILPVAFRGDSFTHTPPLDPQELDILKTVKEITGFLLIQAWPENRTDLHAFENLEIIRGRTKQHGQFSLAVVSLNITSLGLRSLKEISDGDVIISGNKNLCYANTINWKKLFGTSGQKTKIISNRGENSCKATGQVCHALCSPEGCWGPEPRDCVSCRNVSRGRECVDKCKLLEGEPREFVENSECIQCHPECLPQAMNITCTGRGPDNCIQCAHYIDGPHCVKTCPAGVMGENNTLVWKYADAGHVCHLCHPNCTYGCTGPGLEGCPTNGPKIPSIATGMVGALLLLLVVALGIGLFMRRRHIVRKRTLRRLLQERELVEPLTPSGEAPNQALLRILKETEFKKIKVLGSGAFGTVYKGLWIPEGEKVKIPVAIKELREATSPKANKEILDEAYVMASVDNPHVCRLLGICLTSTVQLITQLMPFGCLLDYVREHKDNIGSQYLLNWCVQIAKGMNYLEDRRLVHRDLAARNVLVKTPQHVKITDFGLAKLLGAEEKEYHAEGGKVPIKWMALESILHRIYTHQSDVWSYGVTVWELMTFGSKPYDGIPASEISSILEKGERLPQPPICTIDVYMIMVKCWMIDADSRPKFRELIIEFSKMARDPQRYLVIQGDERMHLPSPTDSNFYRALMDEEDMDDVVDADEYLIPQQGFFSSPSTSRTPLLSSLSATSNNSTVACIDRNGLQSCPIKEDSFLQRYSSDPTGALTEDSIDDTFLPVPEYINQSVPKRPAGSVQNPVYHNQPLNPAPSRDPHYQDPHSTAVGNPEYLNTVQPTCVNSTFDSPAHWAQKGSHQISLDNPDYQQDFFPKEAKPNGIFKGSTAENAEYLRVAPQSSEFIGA

[13] = biological target: T5, EGFR V3 (Homo sapiens, UniProt P00533, DELINS30-297G); assay: BaF3 cell proliferation assay, EGFR V3 (Table A); type: cell-based; details: potency code, 3 days, CellTiterGlo, read-out: EGFR V3 (Activity for Inhibiting EGFR)
T5 construct: expressed in transfected cells; host or cells: BaF3 (murine pro-B), retroviral pMXs-IRES-Blasticidin
Summary of the method: (§3)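 BaF3 cells were infected twice with retrovirus carrying the mutant (pMXs-IRES-Blasticidin, 8 μg/ml polybrene, spinoculation), then selected in 10 μg/ml blasticidin for one week. Resistant pools were then grown without IL-3 to select for IL-3-independent growth. EC50 values were derived from proliferation.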

[14] = biological target: T5, EGFR V3; assay: Activity for inhibiting EGFR (Table A), EGFR V3 (EGFR-Viii); type: cell-based; details: read-out: EGFR V3, potency code (IC50)
[15] = biological target: T4, EGFR WT; assay: BaF3 cell proliferation assay, EGFR WT (Table A); type: cell-based; details: potency code, 3 days, CellTiterGlo, read-out: EGFR WT (Activity for Inhibiting EGFR)
Summary of the method: as §3

[16] = tested on: HER2 extracellular variants; assay: Covalent dimer formation of HER2 extracellular variants, Western blot; type: cell-based; details: Type I inhibitors
[17] = tested on: BaF3-HER2-Δ16 cells; assay: Proliferation of BaF3 cells driven by HER2-Δ16; type: cell-based, murine; details: sub-saturating concentrations

Compound: C=CC(=O)Nc1cccc(Nc2nc(Nc3ccc(N4CCN(C(C)=O)CC4)cc3OC)ncc2C(F)(F)F)c1 [CO-1686]
Induced dimers [1]: Yes

Compound: C#Cc1cccc(Nc2ncnc3cc(OCCOC)c(OCCOC)cc23)c1 [Erlotinib, erlotinib]
median OS (mOS) [2]: 8.6 months
median PFS (mPFS) [2]: 2.8 months

Compound: CN(C)C/C=C/C(=O)Nc1cc2c(Nc3ccc(F)c(Cl)c3)ncnc2cc1C#CC1[C@H]2COC[C@@H]12 (some centres unmarked) [NT-113]
dimerization for covalently activated ErbB receptors ([1]; FIG. 18 legend): induces dimerization
cellular proliferation in response to the inhibitor [3]: no evidence for increased cellular proliferation

Compound: CCOc1cc2ncc(C#N)c(Nc3ccc(OCc4ccccn4)c(Cl)c3)c2cc1NC(=O)/C=C/CN(C)C [Neratinib, neratinib]
paradoxical activation [4]: devoid of paradoxical activation

Compound: CCOc1cc2ncc(C#N)c(Nc3ccc(F)c(Cl)c3)c2cc1NC(=O)/C=C/CN(C)C [Pelitinib, pelitinib]
Induced dimers [1]: Yes

Compound: C=CC(=O)Nc1cccc(Oc2nc(Nc3ccc(N4CCN(C)CC4)cc3)ncc2Cl)c1 [WZ3146]
Induced dimers [1]: Yes

Compound: C=CC(=O)Nc1cccc(Oc2nc(Nc3ccc(N4CCN(C)CC4)cc3OC)ncc2Cl)c1 [WZ4002]
Induced dimers [1]: Yes

Compound: C=CC(=O)Nc1cccc(Sc2nc(Nc3ccc(N4CCN(C)CC4)cc3)ncc2Cl)c1 [WZ8040]
Induced dimers [1]: Yes

IC50 [5]: 30 to 50 nM
IC50 [6]: 20 to 30 nM
IC50 ([7]; Table B, read-out: HER2 WT, potency code (IC50)): 10 to 20 nM
IC50 ([7]; text lists of compounds, read-out: IC50 value for inhibiting wild-type HER2): ≤ 20 nM
IC50 [8]: 30 to 50 nM
IC50 [10]: 10 to 20 nM
IC50 [11]: 20 to 30 nM
IC50 [12]: 300 to 500 nM
IC50 [13]: 30 to 50 nM
IC50 [14]: 30 to 50 nM
IC50 [15]: 300 to 500 nM
Compound: C=CC(=O)Nc1cc2c(Nc3ccc(OCc4cccc(F)c4)c(Cl)c3)ncnc2cc1OCCN1CCOCC1 [compound 27]
pERK1/2 (Thr202/Tyr204) in tumors [9]: reduction
pHER2 (Tyr1221/1222) in tumors [9]: reduction

IC50 [5]: 20 to 30 nM
IC50 [6]: 10 to 20 nM
IC50 [8]: 20 to 30 nM
IC50 [11]: 10 to 20 nM
IC50 [12]: 200 to 300 nM
IC50 [13]: 20 to 30 nM
IC50 [14]: 20 to 30 nM
IC50 [15]: 200 to 300 nM
Compound: C=CC(=O)Nc1cc2c(Nc3ccc(OCc4ccccn4)c(Cl)c3)ncnc2cc1OCCCN1CC(OC)C1 [compound 118]
pERK1/2 (Thr202/Tyr204) in tumors [9]: reduction
pHER2 (Tyr1221/1222) in tumors [9]: reduction

Compound: CNC(=O)CN1CCC(Oc2cc3c(Nc4cccc(Cl)c4F)ncnc3cc2OC)CC1 [sapitinib]
covalent dimers for HER2 extracellular variants [16]: induce the expression of covalent dimers
proliferation of BaF3 cells driven by HER2-Δ16 [17]: paradoxically stimulate the proliferation
